The values below come from publication PMC6152724, “Secondary Sulfonamides as Effective Lactoperoxidase Inhibitors” (Molecules : A Journal of Synthetic Chemistry and Natural …, 2017).

The target in the assay is T1, LPO purified from bovine milk (Bos taurus, UniProt P80025).
T1 construct: from tissue; host or cells: fresh bovine milk
Briefly: LPO inhibition assay (ABTS oxidation by H2O2, absorbance at 412 nm; Lineweaver–Burk plots). It counts as biochemical. The following applies: for Ki / IC50: LPO purified from bovine milk; for Ki: Lineweaver–Burk plots, three inhibitor and five ABTS concentrations, Means ± SD; for IC50: from activity (%)-[inhibitor] regression graphs, ABTS substrate; for Inhibition Type: with respect to ABTS substrate, from Lineweaver–Burk plots. How it is done:
LPO activities were determined by the procedure of Shindler and Bardsley with slight modification. This method is based on the oxidation of chromogenic substrate 2,2′-azino-bis(3-ethylbenzothiazoline-6-sulfonic acid) (ABTS) by hydrogen peroxide (H2O2), which results in a product which had absorbance at 412 nm.
The effects of secondary sulfonamide derivatives (4a–8h) on LPO purified from fresh bovine milk by affinity chromatography technique were previously determined. In our study, LPO activity was measured in the presence of different concentrations of secondary sulfanilamide derivatives (4a–8h). A control sample without secondary sulfonamide was taken as 100%. An activity (%)-[Secondary sulfonamide] plot was drawn. For the determination of the inhibition constant (Ki) values, three different secondary sulfonamide derivative (4a–8h) concentrations were used. Additionally, ABTS was used as a substrate at five different concentrations. Lineweaver–Burk plots (1/V-1/[ABTS]) were obtained for secondary sulfonamide; the Ki and the inhibition type were calculated from these plots. The data obtained were analysed by t-test and the results are given as Means ± SD.

A word on the Ki: it is a dissociation constant, usually derived from enzyme kinetics or from competition with a known ligand. A higher Ki goes with lower affinity. The term IC50 denotes the concentration that inhibits the measured activity by half. High values mean lower potency, low ones higher potency.

On to `Cc1cc(C)nc(NS(=O)(=O)c2ccc(NC(=O)c3cc(O)c(O)c(O)c3)cc2)n1` [8c, N-(sulfamethazine)-3,4,5-trihydroxybenzamide], for which the Ki is 2170 ± 880 nM, half-maximal inhibition (IC50) was put at 2530 nM and the “Inhibition Type” value was “Competitive”.
The like results for `O=C(Nc1ccc(S(=O)(=O)Nc2ccccn2)cc1)c1cc(O)c(O)c(O)c1` [8d, N-(sulfapyridine)-3,4,5-trihydroxybenzamide] were, in that order, 5850 ± 1280 nM, 10200 nM and “Competitive”.
The like results for `Cc1noc(NS(=O)(=O)c2ccc(NC(=O)c3cc(O)c(O)c(O)c3)cc2)c1C` [8e, N-(sulfisoxazole)-3,4,5-trihydroxybenzamide] were, in that order, 1440 ± 520 nM, 1990 nM and “Competitive”.
The like results for `Cc1nnc(NS(=O)(=O)c2ccc(NC(=O)c3cc(O)c(O)c(O)c3)cc2)s1` [8f, N-(sulfamethizole)-3,4,5-trihydroxybenzamide] were, in that order, 293000 ± 62000 nM, 173000 nM and “Non-competitive”.
For the molecule `Cc1ccnc(NS(=O)(=O)c2ccc(NC(=O)c3cc(O)c(O)c(O)c3)cc2)n1` [8g, N-(sulfamerazine)-3,4,5-trihydroxybenzamide], the Ki is 3870 ± 430 nM, the concentration for half-maximal inhibition (IC50) came out at 1480 nM and the “Inhibition Type” value is reported as “Non-competitive”.
The like results for `NS(=O)(=O)c1ccc(NC(=O)c2cc(O)c(O)c(O)c2)cc1` [8h, N-(sulfanilamide)-3,4,5-trihydroxybenzamide] were, in that order, 3100 ± 578 nM, 1780 nM and “Non-competitive”.
